The values below come from US7880007B2, “Bicyclic substituted phenyl piperidine modulators of muscarinic receptors” (Vertex Pharmaceuticals Incorporated, priority 2004, dated 2011).

Format in all cases: cell-based
The target of assay [1] is T1, M1 muscarinic receptor (Homo sapiens, UniProt P11229).
T1 construct: expressed in transfected cells; host or cells: CHO (M1-CHO)
T1 sequence (P11229 1-460): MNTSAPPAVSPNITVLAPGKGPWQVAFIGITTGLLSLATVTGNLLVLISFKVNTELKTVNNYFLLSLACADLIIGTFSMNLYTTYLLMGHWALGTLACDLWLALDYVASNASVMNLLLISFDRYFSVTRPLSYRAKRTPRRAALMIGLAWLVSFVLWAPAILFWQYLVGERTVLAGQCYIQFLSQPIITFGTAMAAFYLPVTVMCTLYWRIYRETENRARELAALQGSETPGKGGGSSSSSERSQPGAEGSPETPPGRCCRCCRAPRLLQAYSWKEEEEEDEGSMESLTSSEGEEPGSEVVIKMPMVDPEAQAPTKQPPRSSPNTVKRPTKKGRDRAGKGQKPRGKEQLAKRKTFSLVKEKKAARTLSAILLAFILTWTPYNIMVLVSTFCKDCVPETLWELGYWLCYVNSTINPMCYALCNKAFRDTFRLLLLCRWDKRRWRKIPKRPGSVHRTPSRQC
Description: Functional mobilization of intracellular calcium (FLIPR), M1-CHO cells. The conditions noted are these: for M1 Activity: M1-CHO cells, calcium mobilization (FLIPR). Summed up: (§1)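 Calcium mobilisation read by FLIPR over 60 s (ex 488/em 540 nm) in recombinant muscarinic CHO lines loaded with calcium dye plus 1 mM probenecid. Compounds tested as agonists alone, or as inhibitors against EC80 carbachol after 15 min pre-incubation or co-addition; 0.5% DMSO; efficacy scaled to carbachol maximal response.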
In general terms: A change in cytosolic calcium serves as a functional read-out for many receptors and channels.

Assay [2] deals with T2, M2 muscarinic receptor (Homo sapiens, UniProt P08172).
T2 construct: expressed in transfected cells; host or cells: CHO (M2-CHO)
T2 sequence (P08172 1-466): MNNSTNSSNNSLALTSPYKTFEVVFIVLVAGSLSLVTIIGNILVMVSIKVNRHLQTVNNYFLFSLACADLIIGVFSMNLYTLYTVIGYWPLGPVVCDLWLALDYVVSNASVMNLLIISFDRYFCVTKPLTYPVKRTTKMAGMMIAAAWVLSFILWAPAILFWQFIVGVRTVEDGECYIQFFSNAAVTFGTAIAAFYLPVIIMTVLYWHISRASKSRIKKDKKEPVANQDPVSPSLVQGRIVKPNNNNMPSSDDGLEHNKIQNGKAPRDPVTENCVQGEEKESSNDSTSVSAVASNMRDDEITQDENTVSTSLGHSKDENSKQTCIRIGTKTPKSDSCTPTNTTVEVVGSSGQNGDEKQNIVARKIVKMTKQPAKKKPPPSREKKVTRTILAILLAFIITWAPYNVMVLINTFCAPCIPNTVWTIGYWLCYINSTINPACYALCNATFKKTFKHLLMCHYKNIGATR
Description: Functional mobilization of intracellular calcium (FLIPR), M2-CHO cells. The conditions noted are these: for M2 Activity: M2-CHO cells, calcium mobilization (FLIPR). A digest of the protocol: as §1

Assay [3] addresses T3, M3 muscarinic receptor (Homo sapiens, UniProt P20309).
T3 construct: expressed in transfected cells; host or cells: CHO (M3-CHO)
Description: Functional mobilization of intracellular calcium (FLIPR), M3-CHO cells. The following applies: for M3 Activity: M3-CHO cells, calcium mobilization (FLIPR). Summed up:
as §1

Assay [4] concerns the target T4, M4 muscarinic receptor (Homo sapiens, UniProt P08173).
T4 construct: expressed in transfected cells; host or cells: CHO (M4-CHO)
T4 sequence (P08173 1-479): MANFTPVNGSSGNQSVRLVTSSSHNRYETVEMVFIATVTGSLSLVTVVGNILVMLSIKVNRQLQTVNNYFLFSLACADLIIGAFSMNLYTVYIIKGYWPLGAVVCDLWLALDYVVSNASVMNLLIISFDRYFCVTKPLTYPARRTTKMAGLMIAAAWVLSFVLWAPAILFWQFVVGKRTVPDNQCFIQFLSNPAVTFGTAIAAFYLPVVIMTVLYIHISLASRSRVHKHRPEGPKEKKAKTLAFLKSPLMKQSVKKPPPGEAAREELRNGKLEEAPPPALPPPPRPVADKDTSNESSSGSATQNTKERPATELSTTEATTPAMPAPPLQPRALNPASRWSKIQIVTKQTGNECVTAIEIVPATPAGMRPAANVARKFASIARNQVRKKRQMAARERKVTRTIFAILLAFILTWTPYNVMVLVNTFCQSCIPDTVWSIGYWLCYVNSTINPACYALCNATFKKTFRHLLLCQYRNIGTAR
The experiment in a line: Functional mobilization of intracellular calcium (FLIPR), M4-CHO cells. The conditions noted are these: for M4 Activity: M4-CHO cells, calcium mobilization (FLIPR). A digest of the protocol: as §1

Setting [5] is: 100% efficacy = maximum response obtained with the Carbachol control.

Each structure is given as a SMILES string.

T3 sequence (P20309 whole entry): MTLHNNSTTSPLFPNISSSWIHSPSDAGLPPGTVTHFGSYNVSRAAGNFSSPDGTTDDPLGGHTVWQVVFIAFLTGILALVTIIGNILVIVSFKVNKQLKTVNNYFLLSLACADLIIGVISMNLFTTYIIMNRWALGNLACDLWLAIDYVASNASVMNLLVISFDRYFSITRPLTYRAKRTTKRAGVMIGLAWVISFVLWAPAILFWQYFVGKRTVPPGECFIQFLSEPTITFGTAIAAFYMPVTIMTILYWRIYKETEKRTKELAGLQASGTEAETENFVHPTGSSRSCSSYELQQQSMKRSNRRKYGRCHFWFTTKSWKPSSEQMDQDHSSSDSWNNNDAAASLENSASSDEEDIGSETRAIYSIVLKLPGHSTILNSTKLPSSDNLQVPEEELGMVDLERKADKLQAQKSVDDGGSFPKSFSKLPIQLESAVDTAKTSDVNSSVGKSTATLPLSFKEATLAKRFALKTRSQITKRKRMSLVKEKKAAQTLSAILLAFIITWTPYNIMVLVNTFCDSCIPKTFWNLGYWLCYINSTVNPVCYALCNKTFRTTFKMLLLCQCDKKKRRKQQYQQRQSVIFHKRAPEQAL

Take `Cc1ccc(C(F)(F)F)cc1C1CCN(C2CCOCC2)CC1` [Compound 358]: the Emax (in general, the size of the effect at its maximum, as opposed to the concentration needed) was 25 to 100% in assay [1] (setting [5]), 25 to 100% in assay [2] (setting [5]), < 25% in assay [3] (setting [5]) and 25 to 100% in assay [4] (setting [5]). Further, in assay [1], the “M1 Activity” value is “++ (activity was measured to be from 1.0 μM to 5.0 μM)”. In assay [2], the “M2 Activity” value is listed as “+ (activity was measured to be greater than 5.0 μM)”. In addition, the “M3 Activity” value in assay [3] was “+ (activity was measured to be greater than 5.0 μM)”. Also, the “M4 Activity” value in assay [4] is “++ (activity was measured to be from 1.0 μM to 5.0 μM)”.

Regarding `COc1ccc(-c2ccc(C(=O)N(C)C)cc2)cc1C1CCN([C@H]2C[C@H]3CC[C@H]2C3)CC1` [Compound 360], the Emax in assay [1] (setting [5]) was < 25%; in assay [2] (setting [5]) it was < 25%; in assay [3] (setting [5]), < 25%; in assay [4] (setting [5]) it was 25 to 100%. The “M1 Activity” value in assay [1] is on record as “+ (activity was measured to be greater than 5.0 μM)”. Besides, the “M2 Activity” value in assay [2] is on record as “+ (activity was measured to be greater than 5.0 μM)”. For the same compound, the “M3 Activity” value in assay [3] is reported as “+ (activity was measured to be greater than 5.0 μM)”. Besides, in assay [4], the “M4 Activity” value was “++ (activity was measured to be from 1.0 μM to 5.0 μM)”.

As for `COc1ccc(-c2ccc(C(C)(C)C#N)cc2)cc1C1CCN(C2CC3CCC(C3)C2)CC1` (stereo not drawn) [Compound 361], the Emax was 25 to 100% in assay [1] (setting [5]), < 25% in assay [2] (setting [5]), < 25% in assay [3] (setting [5]) and 25 to 100% in assay [4] (setting [5]). Also, the “M1 Activity” value in assay [1] is recorded as “+ (activity was measured to be greater than 5.0 μM)”. Moreover, the “M2 Activity” value in assay [2] was “+ (activity was measured to be greater than 5.0 μM)”. In addition, the “M3 Activity” value in assay [3] is given as “+ (activity was measured to be greater than 5.0 μM)”. Also, the “M4 Activity” value in assay [4] is reported as “+ (activity was measured to be greater than 5.0 μM)”.

Turning to `CCCON=C1CCC(N2CCC(c3cc(Cl)ccc3OC)CC2)CC1` (stereo not drawn) [Compound 362], the “M1 Efficacy” value in assay [1] (setting [5]) is listed as “++ (efficacy was calculated to be from 100% to 25%)”. Besides, the “M1 Activity” value in assay [1] was “+++ (activity was measured to be less than 1.0 μM)”. Further, the “M2 Efficacy” value in assay [2] (setting [5]) is “++ (efficacy was calculated to be from 100% to 25%)”. The “M2 Activity” value in assay [2] is “++ (activity was measured to be from 1.0 μM to 5.0 μM)”. For the same compound, the “M3 Efficacy” value in assay [3] (setting [5]) is listed as “+ (efficacy was calculated to be less than 25%)”. Also, the “M3 Activity” value in assay [3] was “+ (activity was measured to be greater than 5.0 μM)”. Moreover, the “M4 Efficacy” value in assay [4] (setting [5]) is “++ (efficacy was calculated to be from 100% to 25%)”. The “M4 Activity” value in assay [4] is listed as “+++ (activity was measured to be less than 1.0 μM)”.

Regarding `CCOC(=O)N1[C@@H]2CC[C@@H]1CC(N1CCC(c3cc(C)ccc3OC)CC1)C2` (stereo partly drawn) [Compound 363], the Emax in assay [1] (setting [5]), in assay [2] (setting [5]), in assay [3] (setting [5]) and in assay [4] (setting [5]) was 25 to 100% in each case. Moreover, in assay [1], the “M1 Activity” value is listed as “+++ (activity was measured to be less than 1.0 μM)”. The “M2 Activity” value in assay [2] is reported as “+++ (activity was measured to be less than 1.0 μM)”. In assay [3], the “M3 Activity” value is “+ (activity was measured to be greater than 5.0 μM)”. Further, in assay [4], the “M4 Activity” value is recorded as “+++ (activity was measured to be less than 1.0 μM)”.

In the case of `CCOC(=O)N1CCC(CN2CCC(c3ccc(F)cc3OC)CC2)CC1` [Compound 364], the Emax is 25 to 100% in assay [1] (setting [5]), < 25% in assay [2] (setting [5]), < 25% in assay [3] (setting [5]) and 25 to 100% in assay [4] (setting [5]). For the same compound, the “M1 Activity” value in assay [1] was “+++ (activity was measured to be less than 1.0 μM)”. Also, in assay [2], the “M2 Activity” value is reported as “+ (activity was measured to be greater than 5.0 μM)”. Besides, in assay [3], the “M3 Activity” value is given as “+ (activity was measured to be greater than 5.0 μM)”. In addition, the “M4 Activity” value in assay [4] is recorded as “+++ (activity was measured to be less than 1.0 μM)”.
